Results published in US8142829B2, “Beverage composition and method of reducing degradation of monatin” (PepsiCo, Inc., priority 2008, dated 2012).

How the values were obtained:
Type in all cases: physicochemical
[1] = Monatin stabilization / degradation observations in beverage, conditions not stated; details: for monatin stabilization ability (rank order): rank by number of hydroxyl groups on the aryl ring
[2] = Heat treatment of bottled monatin beverage in thermostatically controlled oven, one week at 110° F.
Description: (§1) The following illustrates specific embodiments of the present invention (i.e., embodiments using EMIQ) but are not intended to limit it. All percentages are by weight unless otherwise stated. Heat treatment of bottled beverage was conducted in a thermostatically controlled oven. UV exposure of bottled beverage was conducted within an Atlas CI 5000 with Xenon arc lamp in a thermostatically controlled oven.
Additional analyses of the lemon/lime (“L/L”) flavored beverages above were conducted to determine formation of lactone (reversible) or lactam (irreversible) from monatin. The accumulation of the two degradation products would reduce sweetness impact over time and reduce consumer acceptance of a product containing a beverage comprising monatin. […] The amounts of ascorbic acid (where indicated) was 333 ppm, and the amount of EMIQ (where indicated) was 7.50 ppm (50 uL of 15% EMIQ as San-Melin AO-3000=7.5 ppm).

[3] = UV exposure of bottled monatin beverage, Atlas CI 5000 with Xenon arc lamp, 24 hours at 86° F.
Description: as §1
Additional analyses of the lemon/lime (“L/L”) flavored beverages above were conducted to determine formation of lactone (reversible) or lactam (irreversible) from monatin.
UV exposure of bottled beverage was conducted within an Atlas CI 5000 with Xenon arc lamp in a thermostatically controlled oven.

O=C1O[C@H]([C@@H](O)CO)C(O)=C1O [ascorbic acid]
formation of lactam and color hue change with ascorbic acid ([1]; non-colored carbonated soft drink): results in the formation of lactam, a degradation product of monatin, and an undesirable color hue change
Color Hue Change, 1 week @ 110° F. ([2]; Lemon/Lime Carbonated Soft Drink, 265 ppm sodium benzoate, 333 ppm ascorbic acid where indicated, 30 ppm CaNa2EDTA, 50 ppm monatin): No
formation of lactam from monatin ([2]; low pH matrix, heat stress conditions): not ascorbic acid
protection against pink coloration and off-flavor development ([3]; 24 h of UV exposure): protects against pink coloration and off-flavor development
Lactam formation ([3]; Cola CSD, 24 h UV exposure, 30 ppm myricitrin, 100 ppm EMIQ, 300 ppm ascorbic acid or none): 2.9 ppm
Monatin + lactone ([3]; L/L CSD, 24 h UV exposure, 30 ppm myricitrin, 100 ppm EMIQ, 300 ppm ascorbic acid or none): 37.7 ppm
Color Hue Change, UV 24 hours @ 86° F. ([3]; Lemon/Lime Carbonated Soft Drink, 265 ppm sodium benzoate, 333 ppm ascorbic acid where indicated, 30 ppm CaNa2EDTA, 50 ppm monatin, Yes* = pink to rust color develops): No

O=C(O)/C=C/c1ccc(O)c(O)c1 [caffeic acid]
monatin stabilization ability (rank order) [1]: caffeic acid (2 hydroxyl groups)>ferulic acid>coumaric acid>cinnamic acid (no hydroxyl groups)

COc1cc(/C=C/C(=O)O)ccc1O [ferulic acid]
monatin stabilization ability (rank order) [1]: caffeic acid (2 hydroxyl groups)>ferulic acid>coumaric acid>cinnamic acid (no hydroxyl groups)

O=C(O)C=Cc1ccccc1 [cinnamic acid]
monatin stabilization ability (rank order) [1]: caffeic acid (2 hydroxyl groups)>ferulic acid>coumaric acid>cinnamic acid (no hydroxyl groups)

O=C(O)/C=C/c1ccc(O)cc1 [coumaric acid]
monatin stabilization ability (rank order) [1]: caffeic acid (2 hydroxyl groups)>ferulic acid>coumaric acid>cinnamic acid (no hydroxyl groups)
